Laboratory results: ChEMBL document CHEMBL1124583, “New anticancer agents: chiral isomers of ethyl 5-amino-1,2-dihydro-2-methyl-3-phenylpyrido[3,4-b]pyrazine-7-car bamate ” (J Med Chem, 1989)

Tests used:
L1210 [1] = experiment: Inhibitory activity against lymphoid leukemia L1210 cells; format: functional, cell-based; conditions: Mus musculus
P388 [2] = experiment: Increase in the life span of mice with P388 leukemia after the administration of the highest non toxic dose (0.5 mg/kg); format: functional, Mus musculus
L1210 [3] = experiment: Mitotic index (fraction of cells in mitosis divided by total cells) in cultured lymphoid leukemia L1210 cells; format: functional, Mus musculus
P388 [4] = experiment: Increase in the life span of mice with P388 leukemia after the administration of the highest non toxic dose (2 mg/kg); format: functional, Mus musculus
P388 [5] = experiment: Increase in the life span of mice with P388 leukemia after the administration of the highest non toxic dose (1 mg/kg); format: functional; conditions: Mus musculus
P388 [6] = experiment: Increase in the life span of mice with P388 leukemia after the administration of the highest non toxic dose (30 mg/kg); format: functional; conditions: Mus musculus

Row | Structure (SMILES) | IC50 (L1210 [1]) [nM] | Increase (P388 [2]) [%] | MI0.5 (L1210 [3]) [nM] | Increase (P388 [4]) [%] | ILS at 1 mg/kg (P388 [5]) [%] | ILS at 30 mg/kg (P388 [6]) [%]
1 | CCOC(=O)Nc1cc2c(c(N)n1)N=C(c1ccccc1)[C@H](C)N2 [MIVOBULIN] | 0.094 | 64 | 0.14 |  |  | 
2 | CCOC(=O)Nc1cc2c(c(N)n1)N=C(c1ccccc1)CN2 | 4.7 |  | 2.8 | 51 |  | 
3 | CCOC(=O)Nc1cc2c(c(N)n1)N=C(c1ccccc1)C(C)N2 (configuration not stated) | 0.2 |  | 0.58 |  | 71 | 
4 | CCOC(=O)Nc1cc2c(c(N)n1)N=C(c1ccccc1)[C@@H](C)N2 | 17 |  | 27 |  |  | 88
